Test results from patent US8420776B2, “Ube2G2 binding domain in the ubiquitin ligase gp78 and methods of use thereof” (The United States of America, as Represented by the …, priority 2004, dated 2013).

Tests used:
Format in all cases: cell-based
J558 cells [1] = experiment: Annexin V staining by flow cytometry in J558 cells; conditions: 24 hours after transfection, vs GFP574-611E2-m2 or GFP alone
Description: (§1) 24 hr after transfection with constructs encoding GFP or GFP fusion proteins, cells were stained with annexin V-PE (BD Pharmingen) and analyzed on a Beckman coulter XL. Data for J558 was average of three experiments, NIH 3T3 was from 2 experiments. Gates were set to analyze cells expressing GFP using 525 band-pass filter and evaluated for annexin V-PE staining using a 575 band-pass filter. To isolate cells expressing GFP, J558 cells were harvested 24 hr after transfection and sorted on a BD FACS Aria. Transfection efficiencies were 7-10%. 2×10^4 cells expressing GFP fusions were isolated.
(§2) This was verified by a rapid loss of GFP immunoreactivity from cells expressing GFP574-611 (FIG. 7C). To confirm that this is a consequence of apoptosis, cells were evaluated by flow cytometry 24 hours after transfection. This early point was chosen, as by 48 hours few cells expressing the GFP574-611 could be discerned microscopically. […] Thus, the isolated Ube2G2 binding site of gp78 initiates an UPR in cells and a program leading to apoptotic cell death preferentially in myeloma cells.

endogenous UbcH5B = target: T1, endogenous UbcH5B (Homo sapiens, UniProt P62837); experiment: Co-immunoprecipitation of endogenous UbcH5B with GFP fusions in HEK 293T cells; conditions: anti-GFP IP
T1 construct: endogenous in cells; host or cells: HEK 293T
Procedure: (§3) Transfections of HT1080, NIH 3T3 and HEK 293T cells were carried out ˜24 hr after plating using Polyfect (Qiagen, Valencia, Calif.) and cells harvested after ˜48 hr. J558 cells were transfected by electroporation using Bio-rad GENE pulser II at settings of 250 v, 950uF. Vector without insert was used to equalize total plasmid. In most experiments 0.15 μg of pEGFP-C1 served as an internal control. For experiments not involving immunoprecipitation, 6×10^5 cells were plated in 6 well plates and cell lysis was with Mammalian Protein Extraction Reagent (Pierce). […] Supernatants were analyzed after a 10,000×g centrifugation using standard techniques for immunoprecipitation, SDS-PAGE, immunoblotting and ECL. […]
(§4) FIG. 6 depicts the specific binding of gp78 residues 574-611 (of SEQ ID NO:2) to endogenous Ube2G2 in HEK 293T cells. Cells were transfected with plasmids encoding GFP fusions of the indicated regions of gp78, and co-immunoprecipitation was evaluated. […]
(§5) To determine the specificity of E2 binding in cells, GFP fusions encompassing the E2 binding region were expressed in cells, and co-immunoprecipitation of endogenous E2 was tested using antibodies raised specifically against Ube2g1, Ube2G2 and UbcH5B (FIG. 19B). […] In contrast, and consistent with the in vitro binding data in FIG. 18, no association with endogenous UbcH5B or Ube2g1 was detected (FIG. 19B third and fourth panels, left). […]

J558 cells [2] = experiment: Loss of J558 cells expressing GFP fusions by microscopy; conditions: relative to GFP574-611E2-m2
Procedure: as §2

[3] = test system: HEK 293T cells or NIH 3T3 cells; experiment: Cell death by microscopy in HEK 293T or NIH 3T3 cells
Description: (§6) Similarly, an increase in phospho-eIF2α, which attenuates translation and is activated by PERK, was also observed. […] An effective UPR ultimately requires an increase in ERAD. However, the ectopic expression of the Ube2G2 binding site should create a block specifically at this point.

[4] = test system: human multiple myeloma cells; experiment: Ube2G2 binding site expression in human myeloma
NIH 3T3 cells [5] = experiment: Annexin V staining by flow cytometry in NIH 3T3 cells; conditions: 24 hours after transfection
Description: as §1, §2

ERAD substrate CD3-δ = experiment: CD3-δ level in co-transfected cells by immunoblotting; conditions: co-transfection with CD3-δ, immunoblot
Procedure: (§7) Transfections of HT1080, NIH 3T3 and HEK 293T cells were carried out ˜24 hr after plating using Polyfect (Qiagen, Valencia, Calif.) and cells harvested after ˜48 hr. J558 cells were transfected by electroporation using Bio-rad GENE pulser II at settings of 250 v, 950uF. Vector without insert was used to equalize total plasmid. In most experiments 0.15 μg of pEGFP-C1 served as an internal control. For experiments not involving immunoprecipitation, 6×10^5 cells were plated in 6 well plates and cell lysis was with Mammalian Protein Extraction Reagent (Pierce). For immunoprecipitation, 2.4×10^6 cells were seeded in 100 mm dishes and cells were lysed in RIPA buffer (1×PBS, 1% Nonidet P40. 0.5% sodium deoxycholate, 0.1% SDS). Lysis buffers were supplemented with Protease Inhibitor Cocktail (Sigma) and 10 mM iodoacetamide. Supernatants were analyzed after a 10,000×g centrifugation using standard techniques for immunoprecipitation, SDS-PAGE, immunoblotting and ECL. Treatment of cells with MG132 (Sigma) was at 50 μM for eight hr. Cycloheximnide was used at 50 μg/ml. All cells were collected at the end of the six hr chase.
FIG. 7 depicts the stabilization of CD3-δ protein in cells transfected with the G2BD, but not with the G2BD with amino acids 579-584 (of SEQ ID NO:2) mutated. HEK 293T cells were transfected with the ERAD substrate CD3-δ along with the indicated GFP fusions of gp78. The left and right sides are two separate experiments.
(§8) To test this, GFP fusions of either a minimal E2 binding domain (GFP-574-611) or a more extended region that includes the C-terminus of gp78 (GFP-574-643) were evaluated (FIG. 21A). […] To assess this further, the C-terminal region of gp78 was fused to the eight amino acid Flag tag. […] Mdm2 is a RING finger E3 for both itself and p53 that is neither an ERAD substrate nor known to utilize Ube2G2 as an E2. […] To establish with certainty that the effect observed with expression of the Ube2G2 binding site is a consequence of binding endogenous E2, and not due to other unanticipated effects, cells were co-transfected with increasing amounts of Ube2G2 (FIG. 21C, lanes 3 and 4). […] These findings clearly establish that the isolated E2 binding site has the potential to markedly alter ERAD of CD3-δ. To ensure the effect observed was not peculiar to one substrate, TCR-α was evaluated (FIG. 21D).

NIH 3T3 cells [6] = experiment: UPR markers in NIH 3T3 cells expressing GFP fusions
Procedure: as §7, §6

HeLA, U20S and HT1080 = experiment: Cell death in epithelial cancer and sarcoma cell lines
Description: as §6

endogenous Ube2g1 = target: T2, endogenous Ube2g1 (Homo sapiens, UniProt P62253); experiment: Co-immunoprecipitation of endogenous Ube2G1 with GFP fusions in HEK 293T cells; conditions: anti-GFP IP
T2 construct: endogenous in cells; host or cells: HEK 293T
T2 sequence (P62253 1-170): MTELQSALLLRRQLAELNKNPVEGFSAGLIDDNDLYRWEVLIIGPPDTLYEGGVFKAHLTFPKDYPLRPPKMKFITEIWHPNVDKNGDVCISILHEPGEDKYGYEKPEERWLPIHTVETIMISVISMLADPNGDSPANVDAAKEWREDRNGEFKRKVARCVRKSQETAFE
Procedure: as §3, §4, §5

ERAD substrate TCR-α = experiment: TCR-α level in co-transfected cells; conditions: co-transfection with TCR-α
Procedure: as §7
FIG. 9 depicts the stabilization of endogenous TCRα by the G2BD. TCR-α is a subunit of the T cell antigent receptor and an ERAD substrate. TCR-α was stabilized by the region implicated in Ube2G2 binding.
as §8

endogenous Ube2G2 = target: T3, endogenous Ube2G2 (Homo sapiens, UniProt P60604); experiment: Co-immunoprecipitation of endogenous Ube2G2 with GFP fusions in HEK 293T cells; conditions: anti-GFP IP
T3 construct: endogenous in cells; host or cells: HEK 293T
T3 sequence (P60604 1-165): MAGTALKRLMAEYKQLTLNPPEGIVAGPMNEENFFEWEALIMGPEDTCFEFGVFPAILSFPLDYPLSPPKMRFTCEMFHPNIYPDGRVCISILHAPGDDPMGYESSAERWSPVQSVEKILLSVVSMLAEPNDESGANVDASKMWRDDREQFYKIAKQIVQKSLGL
Procedure: as §3, §4, §5

J558 cells [7] = experiment: UPR markers in J558 myeloma cells expressing GFP fusions
Procedure: as §7, §1
Cells with active secretory pathways, such as myeloma, might be predicted to be particularly susceptible to ER stress. […] As with NIH 3T3 cells, expression of the Ube2G2 binding site in the well characterized myeloma cell line J558 led to increases in BiP and phospho-eIF2α.

T1 sequence (P62837 whole entry, the tested form may be a part): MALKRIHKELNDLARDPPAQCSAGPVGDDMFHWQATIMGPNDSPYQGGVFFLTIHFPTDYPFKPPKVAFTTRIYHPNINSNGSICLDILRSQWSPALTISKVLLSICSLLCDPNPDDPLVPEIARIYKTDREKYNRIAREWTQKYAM

## GFP-574-611: N-terminal GFP fusion of gp78 residues 574-611, a minimal E2 binding domain (SADERQRMLVQRKDELLQQARKRFLNKSSEDDAASESF; listed as Homo sapiens)
J558 cells [1]
  annexin V staining (apoptosis marker): dramatic increase
Endogenous UbcH5B
  co-immunoprecipitation of endogenous UbcH5B: not co-immunoprecipitated
J558 cells [2]
  loss of cells expressing the GFP fusion, by microscopy: differential loss
[3]
  cell death by microscopy: no microscopic evidence of increased cell death
[4]
  apoptosis in human myelomas: leads to apoptosis
NIH 3T3 cells [5]
  annexin V staining (apoptosis marker): No significant increase
ERAD substrate CD3-δ
  effect on CD3-δ level (stabilization): dramatically stabilized CD3-δ
ERAD substrate CD3-δ; listed as 574-611
  effect on CD3-δ level (stabilization): sufficient to stabilize CD3-δ
NIH 3T3 cells [6]
  CHOP accumulation: no accumulation
  ER chaperone BiP level: increase
  phospho-eIF2α level: increase
  total eIF2α level: not significantly altered
NIH 3T3 cells [6]; GFP immunoblot
  loss of GFP fusion relative to mutant form: nor was there any discernable loss
HeLA, U20S and HT1080
  cell death: lack of increased cell death
Endogenous Ube2g1
  co-immunoprecipitation of endogenous Ube2G1: not co-immunoprecipitated
ERAD substrate TCR-α; listed as G2BD
  effect on TCR-α level (stabilization): stabilized
ERAD substrate TCR-α; listed as Ube2G2 binding site
  effect on TCR-α level (stabilization): markedly stabilized TCR-α
Endogenous Ube2G2
  co-immunoprecipitation of endogenous Ube2G2: sufficient to co-immunoprecipitate endogenous Ube2G2
J558 cells [7]
  BiP level: increases
  CHOP level: marked increase
  GFP immunoreactivity over time: rapid loss
  phospho-eIF2α level: increases
